Columns and labels:
[1] = cited from earlier work
[2] = Solubility of benzoyl peroxide, judged by eye (crystals disappear or stay at the bottom); type: physicochemical
Method: In embodiments described herein, the solubility of benzoyl peroxide is increased. The composition of benzoyl peroxide and Hest G-18-0 is transparent. Solubility is measured by visualizing whether the solid crystalline form of benzoyl peroxide disappears in the liquid or if it can be seen at the bottom of the solution in an undissolved crystalline form.

skin of the forearm = conditions: in vivo

Row | erythema of the skin (skin of the forearm) | Compound | solubility of benzoyl peroxide in water ([1]; at 25° C.) | solubility in common cosmetic solvents ([1]; ethanol, glycerin, propylene glycol, or butylene glycol) | solubility of benzoyl peroxide in Hest G-18-0 ([2]; 5% benzoyl peroxide in 100% Hest G-18-0, visual, FIG. 1 right beaker) | solubility of benzoyl peroxide in ethoxydiglycol ([2]; 5% benzoyl peroxide in 100% ethoxydiglycol, visual, FIG. 1 left beaker)
1 | – | O=C(OOC(=O)c1ccccc1)c1ccccc1 [benzoyl peroxide, Benzoyl peroxide] | 9.1 ppm | practically insoluble | completely dissolved | insolubility
2 | greatly reduced | Glycereth-18 ethylhexanoate [Hest G-18-0] | – | – | – | –

— US10722488B2, “Hest G-18-0 and benzoyl peroxide compositions and methods for using the same” (RODAN & FIELDS, LLC, priority 2016, dated 2020)
